Laboratory results published in US20250163006A1, “New Coolants, and Preparations Containing Same” (Symrise AG, priority 2022, published 2025).

target: T1, human TRPM8 receptor (Homo sapiens, UniProt Q7Z2W7); assay: Assay on TRPM8 modulators: Ca2+-sensitive dye (Fluo-4) fluorescence in HEK293-TRPM8 test cells; format: cell-based; design: relative TRPM8 activation: concentration or dose not given beside the values; conditions: HEK293 cells recombinantly expressing human TRPM8
T1 construct: expressed in transfected cells; host or cells: HEK293, stably transfected, tetracycline-inducible expression
T1 sequence (Q7Z2W7 whole entry): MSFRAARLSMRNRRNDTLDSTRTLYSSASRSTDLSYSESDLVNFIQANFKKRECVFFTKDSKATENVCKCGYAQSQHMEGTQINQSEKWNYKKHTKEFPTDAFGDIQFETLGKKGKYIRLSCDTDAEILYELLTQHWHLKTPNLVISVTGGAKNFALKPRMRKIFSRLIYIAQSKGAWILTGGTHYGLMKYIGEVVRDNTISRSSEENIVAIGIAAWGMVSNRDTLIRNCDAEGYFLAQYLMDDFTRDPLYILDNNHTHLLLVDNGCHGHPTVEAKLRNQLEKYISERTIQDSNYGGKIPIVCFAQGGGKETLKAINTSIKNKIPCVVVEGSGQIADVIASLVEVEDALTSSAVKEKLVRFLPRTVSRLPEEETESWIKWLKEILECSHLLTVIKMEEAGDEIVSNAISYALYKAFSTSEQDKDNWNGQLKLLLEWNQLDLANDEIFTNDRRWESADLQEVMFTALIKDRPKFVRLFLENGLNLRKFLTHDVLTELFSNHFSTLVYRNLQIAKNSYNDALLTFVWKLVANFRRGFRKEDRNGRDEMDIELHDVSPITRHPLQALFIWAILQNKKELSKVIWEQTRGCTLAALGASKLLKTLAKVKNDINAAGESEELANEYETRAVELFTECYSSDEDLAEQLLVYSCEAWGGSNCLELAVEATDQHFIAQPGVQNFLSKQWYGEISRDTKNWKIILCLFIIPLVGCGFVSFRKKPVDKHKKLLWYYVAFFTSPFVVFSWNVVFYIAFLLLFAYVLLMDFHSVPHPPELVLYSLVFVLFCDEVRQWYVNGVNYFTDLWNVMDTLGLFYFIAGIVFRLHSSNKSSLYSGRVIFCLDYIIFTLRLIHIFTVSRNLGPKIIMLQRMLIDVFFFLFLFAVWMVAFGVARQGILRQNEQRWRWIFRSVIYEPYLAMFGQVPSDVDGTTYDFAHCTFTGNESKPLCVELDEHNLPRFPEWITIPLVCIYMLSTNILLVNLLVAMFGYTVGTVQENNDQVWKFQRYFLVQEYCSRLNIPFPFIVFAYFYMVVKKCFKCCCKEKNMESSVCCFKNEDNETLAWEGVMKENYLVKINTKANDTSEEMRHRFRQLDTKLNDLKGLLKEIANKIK
Source text: The starting point for cloning the human TRPM8 receptor is an LnCaP cDNA bank. This is commercially available (e.g. BioChain, Hayward, USA) or can be produced from the andro gene-sensitive human prostate adenocarcinoma cell line LnCaP (e.g. ATCC, CRL1740 or ECACC, 891 1021 1) using standard kits.
The coding TRPM8 sequence (see e.g. http://www. ncbi.nlm.nih.gov/entrez/viewer.fcgi?db=nuccore&id=109689694) can be PCR-amplified and cloned using standard methods. The human TRPM8 gene isolated in this way was used to produce the plasmid plnd_M8. Alternatively, the TRPM8 gene can also be produced synthetically.
A stably transfected HEK293 cell line was produced as a test cell system using human TRPM8 DNA. Preference was given to HEK293, which offers the possibility of inducing TRPM8 expression using tetracycline via the plasmid introduced.
A test similar to the test already described in the literature by Behrendt H. J. et al, Br. J. Pharmacol. 141, 2004, 737-745, is performed. The agonization or antagonization of the receptor can be quantified using a Ca^2+-sensitive dye (e.g. FURA, Fluo-4 etc.). Agonists alone cause an increase in the Ca^2+ signal; antagonists cause a reduction in the Ca^2+ signal in the presence of e.g. menthol (detected in each case using the Fluo-4 dye, which has different fluorescence properties due to Ca^2+ ions).
First, a fresh culture of transformed HEK cells is prepared in cell culture flasks in the usual way. The HEK293-TRPM8 test cells are detached from the cell culture flasks using trypsin and 40,000 cells/well are seeded with 100 μl medium in 96-well plates (Greiner #655948 poly-D-lysine-coated). To induce the TRPM8 receptor, tetracycline is added to the growth medium (DMEM/HG, 10% FCS tetracycline-free, 4 mM L-glutamine, 15 μg/ml blasticidin, 100 μg/ml hygromycin B, 1 μg/ml tetracycline).
On the following day, the cells are loaded with Fluo-4AM dye and the test is performed. Proceed as follows: Addition of 100 μl/well staining solution Ca-4 kit (RB 141, Molecular Devices) to each 100 μl medium (DMEM/HG, 10% FCS tetracycline-free, 4 mM L-glutamine, 15 μg/ml blasticidin, 100 μg/ml hygromycin B, 1 μg/ml tetracycline).
Incubation in incubator, 30 minutes/37° C./5% CO2, 30 minutes/RT.
Preparation of the test substances (different concentrations in 200 μl HBSS buffer), as well as positive controls (different concentrations of menthol, icilin or lonomycin in 200 μl HBSS buffer) and negative controls (only 200 μl HBSS buffer) Addition of the test substances in quantities of 50 μl/well and measurement of the fluorescence change (e.g. in the assay device FLIPR, Molecular Devices or NovoStar, BMG) at 485 nm excitation, 520 nm emission, and evaluation of the potency of the different substances/concentrations and determination of the ECG. e.g. in the FLIPR assay device, Molecular Devices or NovoStar, BMG) at 485 nm excitation, 520 nm emission, and evaluation of the potency of the various substances/concentrations and determination of the EC50 values.
The test substances are used in triplicates in concentrations of 0.1-200 μM in the assay. Normally, the compounds are kept ready in DMSO solutions and diluted down to a maximum DMSO concentration of 2% for the assay.
The activity of the active substances in relation to activation of the TRPM8 channel is determined using the assay described. This is done in a concentration-dependent manner. For each active substance, 6 to 10 concentrations are measured as standard. A mathematical method (4-parameter or 5-parameter logistic curve fitting) can be used to determine the EC50 value as the inflection point of the sigmoidal curve from the activity values determined. These are standard biochemical methods that are familiar to experts.

Structure (SMILES)	relative TRPM8 activation
CNC(=O)C(C)Sc1ncco1 (stereo not drawn) [Compound A-50, N-methyl-2-oxazol-2-ylsulfanyl-propanamide]	1%
CC(C)C(=O)CSc1nc(-c2ccccc2)c(-c2ccccc2)o1 [Compound A-51, 1-(4,5-diphenyloxazol-2-yl)sulfanyl-3-methyl-butan-2-one]	1%
CCCC(C)NC(=O)CSc1nc(-c2ccccc2)c(-c2ccccc2)o1 (stereo not drawn) [Compound A-52, 2-(4,5-diphenyloxazol-2-yl)sulfanyl-N-(1-methylbutyl) acetamide]	1%
COCCNC(=O)CSc1nc(-c2ccccc2)c(-c2ccccc2)o1 [Compound A-53, 2-(4,5-diphenyloxazol-2-yl)sulfanyl-N-(2-methoxyethyl) acetamide]	1%
c1ccc(CSc2nc(-c3ccccc3)c(-c3ccccc3)o2)cc1 [Compound A-54, 2-benzylsulfanyl-4,5-diphenyl-oxazole]	1%
Cc1nc(SC(C)C(=O)NC2CC2)[nH]c1C (stereo not drawn) [Compound A-56, N-cyclopropyl-2-[(4,5-dimethyl-1H-imidazol-2-yl)sulfanyl] propanamide]	1%
CC(=O)OCCSc1nc(-c2ccccc2)c(-c2ccccc2)o1 [Compound A-57, 2-(4,5-diphenyloxazol-2-yl)sulfanylethyl acetate]	1%
COc1ccc(-c2nc(SCC(=O)NC3CC3)oc2-c2ccc(OC)cc2)cc1 [Compound A-58, 2-[4,5-bis(4-methoxyphenyl)oxazol-2-yl]sulfanyl-N-cyclopropyl-acetamide]	1%
CNC(=O)CSc1ncco1 [Compound A-59, N-methyl-2-oxazol-2-ylsulfanyl-acetamide]	1%
OCCSc1nc(-c2ccccc2)c(-c2ccccc2)o1 [Compound A-60, 2-(4,5-diphenyloxazol-2-yl) sulfanylethanol]	0%
CCC(=O)CSc1nc(-c2ccccc2)c(-c2ccccc2)o1 [Compound A-61, 1-(4,5-diphenyloxazol-2-yl)sulfanylbutan-2-one]	0%
CNCCc1nc(-c2ccccc2)c(-c2ccccc2)o1.Cl [Compound A-62, 2-(4,5-diphenyloxazol-2-yl)ethyl-methyl-ammonium; chloride]	0%
COC(=O)NCCc1nc(-c2ccccc2)c(-c2ccccc2)o1 [Compound A-63, methyl N-[2-(4,5-diphenyloxazol-2-yl)ethyl]carbamate]	−1%
CNC(=O)CSc1ncc(-c2ccccc2)[nH]1 [Compound A-64]	−1%
CC(C)CNC(=O)CSc1nc(-c2ccccc2)c(-c2ccccc2)o1 [Compound A-65, 2-(4,5-diphenyloxazol-2-yl)sulfanyl-N-isobutyl-acetamide]	−1%
O=C(CSc1ncco1)NC1CC1 [Compound A-66, N-cyclopropyl-2-oxazol-2-ylsulfanyl-acetamide]	−1%

Structure (SMILES)	relative TRPM8 activation
COCC(C)NC(=O)CSc1nc(-c2ccccc2)c(-c2ccccc2)o1 (stereo not drawn) [Compound A-67, 2-(4,5-diphenyloxazol-2-yl)sulfanyl-N-(2-methoxy-1-methyl-ethyl)acetamide]	−2%
CNC(=O)CSc1nc(-c2ccc(C)cc2)c(-c2ccc(C)cc2)o1 [Compound A-68, 2-[4,5-bis(p-tolyl)oxazol-2-yl]sulfanyl-N-methyl-acetamide]	−2%
CNC(=O)C(C)Sc1nc(-c2ccc(OC)cc2)c(-c2ccc(OC)cc2)o1 (stereo not drawn) [Compound A-69, 2-[4,5-bis(4-methoxyphenyl)oxazol-2-yl]sulfanyl-N-methyl-propanamide]	−2%
CCCCNC(=O)CSc1nc(-c2ccccc2)c(-c2ccccc2)o1 [Compound A-70, N-butyl-2-(4,5-diphenyloxazol-2-yl)sulfanyl-acetamide]	−2%
CN(C)c1nc(-c2ccccc2)c(-c2ccccc2)o1 [Compound A-71, N,N-dimethyl-4,5-diphenyl-oxazol-2-amine]	−3%
CNC(=O)CSc1nc(-c2ccc(OC)cc2)c(-c2ccc(OC)cc2)o1 [Compound A-72, 2-[4,5-bis(4-methoxyphenyl)oxazol-2-yl]sulfanyl-N-methyl-acetamide]	−5%
COC(=O)CCc1nc(-c2ccccc2)c(-c2ccccc2)o1 [Compound A-73, methyl 3-(4,5-diphenyloxazol-2-yl)propanoate]	−5%
CC(Sc1nnc(-c2ccccc2)c(-c2ccccc2)n1)C(=O)NC1CCCC1 (stereo not drawn) [Compound B-22, N-cyclopentyl-2-[(5,6-diphenyl-1,2,4-triazin-3-yl)sulfanyl]propanamide]	87%
CN(C)C(=O)CSc1cnc(-c2ccccc2)c(-c2ccccc2)n1 [Compound B-23, 2-(5,6-diphenylpyrazin-2-yl)sulfanyl-N,N-dimethyl-acetamide]	73%
O=C(CSc1cnc(-c2ccccc2)c(-c2ccccc2)n1)NC1CC1 [Compound B-24, N-cyclopropyl-2-(5,6-diphenylpyrazin-2-yl)sulfanyl-acetamide]	68%
CC(C)C(=O)CSc1nnc(-c2ccccc2)c(-c2ccccc2)n1 [Compound B-25, 1-[(5,6-diphenyl-1,2,4-triazin-3-yl)sulfanyl]-3-methyl-butan-2-one]	57%
CNC(=O)CCSc1nnc(-c2ccccc2)c(-c2ccccc2)n1 [Compound B-26, 3-[(5,6-diphenyl-1,2,4-triazin-3-yl)sulfanyl]-N-methyl-propanamide]	56%
CN(C)C(=O)CSc1nnc(-c2ccccc2)c(-c2ccccc2)n1 [Compound B-27, 2-[(5,6-diphenyl-1,2,4-triazin-3-yl)sulfanyl]-N,N-dimethyl-acetamide]	56%
CC(Sc1nnc(-c2ccccc2)c(-c2ccccc2)n1)C(=O)NCc1ccco1 (stereo not drawn) [Compound B-28, 2-[(5,6-diphenyl-1,2,4-triazin-3-yl)sulfanyl]-N-(2-furylmethyl)propanamide]	53%
CCC(=O)C(C)Sc1nnc(-c2ccccc2)c(-c2ccccc2)n1 (stereo not drawn) [Compound B-29, 2-[(5,6-diphenyl-1,2,4-triazin-3-yl)sulfanyl]pentan-3-one]	42%

same assay, conditions: TRPM8 activation, HEK293-TRPM8 cells, 6 to 10 concentrations, logistic curve fitting; read-out: EC50 value

Structure (SMILES)	EC50
CCC(Sc1nnc(-c2ccccc2)c(-c2ccccc2)n1)C(=O)NC (stereo not drawn) [Compound B-03, 2-[(5,6-diphenyl-1,2,4-triazin-3-yl)sulfanyl]-N-methyl-butanamide]	≤ 1000 nM
CNC(=O)CSc1cnc(-c2ccccc2)c(-c2ccccc2)n1 [Compound B-04, 2-(5,6-diphenylpyrazin-2-yl)sulfanyl-N-methyl-acetamide]	≤ 1000 nM
CCC(Sc1nnc(-c2ccccc2)c(-c2ccccc2)n1)C(=O)N(C)C (stereo not drawn) [Compound B-05, 2-[(5,6-diphenyl-1,2,4-triazin-3-yl)sulfanyl]-N,N-dimethyl-butanamide]	≤ 1000 nM

same assay, conditions: Table 5; HEK293-TRPM8 cells; read-out: TRPM8 EC50

Structure (SMILES)	EC50
CCC(Sc1nnc(-c2ccccc2)c(-c2ccccc2)n1)C(=O)NC (stereo not drawn) [Compound B-03, 2-[(5,6-diphenyl-1,2,4-triazin-3-yl)sulfanyl]-N-methyl-butanamide]	70 nM
CNC(=O)CSc1cnc(-c2ccccc2)c(-c2ccccc2)n1 [Compound B-04, 2-(5,6-diphenylpyrazin-2-yl)sulfanyl-N-methyl-acetamide]	370 nM
CCC(Sc1nnc(-c2ccccc2)c(-c2ccccc2)n1)C(=O)N(C)C (stereo not drawn) [Compound B-05, 2-[(5,6-diphenyl-1,2,4-triazin-3-yl)sulfanyl]-N,N-dimethyl-butanamide]	100 nM
CC(Sc1nnc(-c2ccccc2)c(-c2ccccc2)n1)C(=O)N1CCCC1 (stereo not drawn) [Compound B-18, 2-[(5,6-diphenyl-1,2,4-triazin-3-yl)sulfanyl]-1-pyrrolidin-1-yl-propan-1-one]	5360 nM

same assay, conditions: Table 7; HEK293-TRPM8 cells; read-out: TRPM8 EC50

Structure (SMILES)	EC50
CCC(Sc1nnc(-c2ccccc2)c(-c2ccccc2)n1)C(=O)NC (stereo not drawn) [Compound B-03, 2-[(5,6-diphenyl-1,2,4-triazin-3-yl)sulfanyl]-N-methyl-butanamide]	70 nM
CNC(=O)CSc1cnc(-c2ccccc2)c(-c2ccccc2)n1 [Compound B-04, 2-(5,6-diphenylpyrazin-2-yl)sulfanyl-N-methyl-acetamide]	370 nM
CCC(Sc1nnc(-c2ccccc2)c(-c2ccccc2)n1)C(=O)N(C)C (stereo not drawn) [Compound B-05, 2-[(5,6-diphenyl-1,2,4-triazin-3-yl)sulfanyl]-N,N-dimethyl-butanamide]	100 nM
CC(Sc1nnc(-c2ccccc2)c(-c2ccccc2)n1)C(=O)N1CCCC1 (stereo not drawn) [Compound B-18, 2-[(5,6-diphenyl-1,2,4-triazin-3-yl)sulfanyl]-1-pyrrolidin-1-yl-propan-1-one]	5360 nM
